Measurements from PMC4355590, “A Kinetic Study of the Main Guaco Metabolites Using Syrup Formulation and the Identification of an Alternative Route of Coumarin Metabolism in Humans” (PLoS ONE, 2015).
Values belong to the compound of their own block, whether it stands above or below them.

How the values were obtained:
[1] = Stability in human plasma: short-term, freeze-thaw and long-term; type: in vitro ADME; conditions: for Mean recovery: n = 8, ± SD
Description: The samples were vortexed for 2 min and then were kept at room temperature for 8 h. Afterward, the samples were spiked with 50 μL of IS solution and were vortexed (2 min) and submitted to the extraction procedures. The short-term stability was evaluated by comparing the mean recovery of the analytes and the IS obtained from stored samples with the mean values obtained with freshly prepared samples, at same concentration levels.
(§1) Freeze-thawed, post-preparative and long-term stability assay samples were prepared and evaluated similar to the short-term stability samples. However, the freeze thawing assay was assessed after undergoing three freeze-thaw cycles (one freeze-thaw cycle per day on three consecutive days) and post-preparative assay, maintaining the extracted samples for 24 hours in the Sample Manager (20°C, transparent vials). The long-term stability of human plasma stored at -40°C was assessed at the end of the study (60 days).

[2] = Stability of stock solutions and working standard solutions; type: physicochemical; conditions: for Mean recovery: n = 8, ± SD
Description: The stability of the stock solutions (1 mg/mL of each analyte and ISs) was evaluated after 30 days of storage in a refrigerator (4°C, amber bottles). The stored solutions were diluted with acetonitrile/water (70:30 v/v) to obtain the same concentration levels as the short-term stability assay. The stability of the stock solutions was evaluated by comparing the mean recovery of the analytes and IS obtained from stored samples to the mean values obtained with freshly prepared samples, at the same concentration levels. The stability of the working standard solutions was assessed using a procedure similar to that described for stock solution stability. […]

[3] = Post-preparative stability of extracted samples; type: physicochemical; conditions: for Mean recovery: n = 8, ± SD
Description: as §1

[4] = test system: release of prostaglandin E2; set-up: method as in PMID 21211951; conditions: LPS-induced RAW264.7 macrophages; cited from earlier work
[5] = test system: endothelium-intact or denuded rat aortic rings; set-up: method as in PMID 15178370, PMID 11864765; conditions: cited from earlier work
[6] = biological target: cyclooxygenase-2; set-up: method as in PMID 21211951; conditions: LPS-induced RAW264.7 macrophages; cited from earlier work
[7] = test system: synthesis of nitric oxide; set-up: method as in PMID 21211951; conditions: LPS-induced RAW264.7 macrophages; read-out: IC50, inhibition of the synthesis of nitric oxide; cited from earlier work
[8] = Initial screening of bioavailability: 60 mL of guaco syrup orally; type: in vivo, human; conditions: 60 mL guaco syrup (17.6 mg COU, 1.1 mg OCA, 8.9 mg KAU), up to 600 min
Description: All the volunteers fasted for 8 h prior to the administration of guaco syrup and blood collection. […] The anticoagulant used was tetrasodium edetate. […] The pharmacokinetic analysis was performed using a non-compartmental model, considering an extravascular administration route and using WinNonlin Professional software, version 5.3. The relationships among the areas under the curves (r areas = AUC0-t/AUC0-inf), were used to confirm the suitability of the experimental design.

[9] = test system: carrageenan-induced paw edema; set-up: method as in PMID 21211951; conditions: mice, 50 mg/kg, 5 h after the induction of inflammation; cited from earlier work
[10] = set-up: method as in PMID 7150456; conditions: cited from earlier work
[11] = Short-term, internal standard level
[12] = Short-term, internal standard level (500.0, 1000.0, 500.0 ng/mL)
[13] = 8 h at room temperature, internal standard level (6-methylcoumarin 500.0, Isoferulic acid 1000.0, Prednisone 500.0 ng/mL)
[14] = 8 h at room temperature, internal standard level, stored vs freshly prepared
[15] = 30 days at 4 °C (stock solutions), internal standard level (500.0, 1000.0, 500.0 ng/mL)
[16] = post-preparative, internal standard level
[17] = post-preparative, internal standard level (500.0, 1000.0, 500.0 ng/mL)
[18] = 30 days at 4 °C, internal standard level

Compound: Cc1ccc2oc(=O)ccc2c1 [6-methylcoumarin, reference compound]
RE [1, 11]: 0.45% | Mean recovery [1, 12]: 501.1 ± 1.6 ng/mL | Mean recovery [2, 13]: 497.3 ± 3.8 ng/mL | RE [2, 14]: -0.54% | Mean recovery [2, 15]: 480.6 ± 46.6 ng/mL | RE [2, 18]: -3.89% | RE [3, 16]: -6.38% | Mean recovery [3, 17]: 468.1 ± 22.6 ng/mL

Compound: Cn1c(=O)c2[nH]cnc2n(C)c1=O [theophylline]
clearance [10]: 2.8 L/h

The next lines start with results.

RE [1, 11]: 0.43% | Mean recovery [1, 12]: 502.2 ± 11.1 ng/mL | Mean recovery [2, 13]: 470.5 ± 26.6 ng/mL | RE [2, 14]: -5.90% | Mean recovery [2, 15]: 497.0 ± 13.9 ng/mL | RE [3, 16]: -4.14% | Mean recovery [3, 17]: 479.3 ± 16.9 ng/mL
Compound: C[C@]12C=CC(=O)C=C1CC[C@@H]1[C@@H]2C(=O)C[C@@]2(C)[C@H]1CC[C@]2(O)C(=O)CO [Prednisone, prednisone, reference compound]

Mean recovery ([1]; Long-term: plasma at -40°C, 60 days, high level (1250.0, 750.0, 750.0, 500.0 ng/mL)): 463.2 ± 12.3 ng/mL | Mean recovery ([1]; Long-term: plasma at -40°C, 60 days, low level (50.0, 12.5, 25.0, 10.0 ng/mL)): 8.8 ± 0.3 ng/mL | RE ([1]; Long-term, high level): -7.36% | RE ([1]; Long-term, low level): -11.70% | Mean recovery ([1]; Short-term: plasma at room temperature for 8 h, high level (1250.0, 750.0, 750.0, 500.0 ng/mL)): 498.9 ± 7.6 ng/mL | Mean recovery ([1]; Short-term: plasma at room temperature for 8 h, low level (50.0, 12.5, 25.0, 10.0 ng/mL)): 10.0 ± 0.3 ng/mL | RE ([1]; Short-term, high level): -0.22% | RE ([1]; Short-term, low level): 0.23% | RE ([1]; freeze–thaw cycles, high level): 0.49% | RE ([1]; freeze–thaw cycles, low level): -0.41% | Mean recovery ([1]; three freeze–thaw cycles, plasma, high level (1250.0, 750.0, 750.0, 500.0 ng/mL)): 502.5 ± 6.1 ng/mL | Mean recovery ([1]; three freeze–thaw cycles, plasma, low level (50.0, 12.5, 25.0, 10.0 ng/mL)): 9.9 ± 0.4 ng/mL | Mean recovery ([2]; 8 h at room temperature, high level (Coumarin 1250.0, 7-hydroxycoumarin 750.0, o-coumaric acid 750.0, Kaurenoic acid 500.0 ng/mL)): 516.6 ± 5.1 ng/mL | RE ([2]; 8 h at room temperature, high level, stored vs freshly prepared): 3.33% | Mean recovery ([2]; 8 h at room temperature, low level (Coumarin 50.0, 7-hydroxycoumarin 12.5, o-coumaric acid 25.0, Kaurenoic acid 10.0 ng/mL)): 10.2 ± 0.7 ng/mL | RE ([2]; 8 h at room temperature, low level, stored vs freshly prepared): 8.94% | Mean recovery ([2]; 30 days at 4 °C (stock solutions), high level (1250.0, 750.0, 750.0, 500.0 ng/mL)): 487.8 ± 34.9 ng/mL | Mean recovery ([2]; 30 days at 4 °C (stock solutions), low level (50.0, 12.5, 25.0, 10.0 ng/mL)): 9.75 ± 0.6 ng/mL | RE ([2]; 30 days at 4 °C, high level): 3.33% | RE ([2]; 30 days at 4 °C, low level): -2.46% | plasma levels after guaco syrup without spiking [8]: did not provide sufficient levels | Mean recovery ([3]; post-preparative: extracted samples 24 hours at 20°C, high level (1250.0, 750.0, 750.0, 500.0 ng/mL)): 509.8 ± 6.6 ng/mL | Mean recovery ([3]; post-preparative: extracted samples 24 hours at 20°C, low level (50.0, 12.5, 25.0, 10.0 ng/mL)): 9.8 ± 0.4 ng/mL | RE ([3]; post-preparative, high level): 1.96% | RE ([3]; post-preparative, low level): -1.70%
Compound: C=C1C[C@@]23CC[C@H]4[C@@](C)(CCC[C@@]4(C)C(=O)O)[C@@H]2CC[C@@H]1C3 [KAU, kaurenoic acid]
IC50 [4]: 106 µM | concentration promoting vasodilatory effects in rat aortas ([5]; endothelium-intact or denuded rings): greater than 10 mM | concentration with concentration-dependent activity on vascular smooth muscle ([5]; rat aortic rings pre-contracted with phenylephrine and potassium chloride): ≥ 10 µM | IC50, expression of cyclooxygenase-2 activity [6]: 3.5 µg/mL | IC50 [7]: 51.7 µM | reduction of the swelling [9]: 34.4%

RE [1, 11]: -0.07% | Mean recovery [1, 12]: 999.3 ± 62.2 ng/mL | Mean recovery [2, 13]: 950.0 ± 75.2 ng/mL | RE [2, 14]: -5.00% | Mean recovery [2, 15]: 1037.5 ± 68.1 ng/mL | RE [2, 18]: 3.75% | RE [3, 16]: -1.35% | Mean recovery [3, 17]: 986.5 ± 31.7 ng/mL
Compound: COc1ccc(/C=C/C(=O)O)cc1O [Isoferulic acid, isoferulic acid, reference compound]
